Results taken from patent US6365414B1, “Vitro system for determining formation of Aβ amyloid” (The General Hospital Corporation, priority 1994, dated 2002).
Like-named read-outs stand apart in the source and are kept apart here. Blank lines part the entries; values can stand above or below the compound they belong to.

Legend:
[1] = ^65Zn^2+ dot-blot binding to immobilized Aβ peptides (Scatchard / competition); conditions: for zinc binding (in words): dot-blot or blot of tryptic digest, ^65Zn^2+
Experimental: ^65Zn^2+ Binding Studies—Dissolved peptides (1.2 nMol, unless otherwise stated) were dot-blotted onto 0.2-μm polyvinylidene difluoride membrane (Pierce Chemical Co.), washed twice with chelating buffer (200 μl×100 mM NaCl, 20 mM Tris-HCl, 1 mM EDTA, pH 7.4), then five times with blocking buffer (200 μl×100 mM NaCl, 20 mM Tris-HCl, 1 mM MnCl2, pH 7.4), and then incubated (60 min, 20° C.) with ^65Zn (unless otherwise stated 130,000 cpm, […] ^65ZnCl2 in 200 μl of blocking buffer±competing metal ion chloride). The dot-blot was then washed with blocking buffer (5×200 μl), the dot excised, placed in a test tube, and assayed by γ-counting (11% efficiency). The equilibration volume for stoichiometry estimates was regarded as 6×200 μl. The 214 nm UV absorbance of the unbound flow-through was assayed to determine the total amount of peptide remaining bound onto the membrane. […] To alter the pH, the ^65Zn incubation was carried out in the presence of 100 mM buffer: MOPS (pH 6.5-7.0), MES (pH 5.0-6.0), acetate (pH 3.5-4.5). The dot-blot apparatus was washed with detergent and EDTA (50 mM) then rinsed and siliconized between use.
Aliquots of Aβ were incubated (60 min) with ^65Zn^2+ in the presence of varying concentrations of unlabeled Zn^2+ (0.01-50 μM total). Values shown are means±S.D., n≧3. […] (FIG. 1b) depicts specificity of the Zn^2+ binding site for various metals. Aβ was incubated (60 min) with ^65Zn^2+ (157 nM, 138,000 cpm) and competing unlabeled metal ions (50 μM total). […] Percent binding of total counts ^65Zn^2+/min added is corrected for the amounts (in nanomoles) of peptides adhering to the membrane. (FIG. 1d) depicts as for 1a, with Aβ1-28 peptide substituting for Aβ1-40. 157 nM ^65Zn (138,000 cpm) is used in this experiment to probe immobilized peptide (1.6 nmol). (FIG. 1e) depicts pH dependence of […] binding to Aβ1-40.

Aβ1-40 = biological target: T1, Aβ1-40 (Homo sapiens, UniProt P05067); test: Tryptic digestion of Aβ1-40 after incubation with Zn^2+; format: biochemical
T1 construct: Aβ1-40 (13.9 μg) was incubated with; purchased Bachem; Sigma (also synthesized by the W. M. Keck Foundation laboratory, Yale); host or cells: chemical synthesis

Aβ [2] = biological target: T2, Aβ (Homo sapiens, UniProt P05067); test: G50 gel filtration chromatography of Aβ with metal ions or EDTA; conditions: for less total peptide eluted compared with EDTA profile / effect on Aβ recoverable by chromatography (in words): metal 25 μM
T2 construct: purchased Bachem; Sigma (also synthesized by the W. M. Keck Foundation laboratory, Yale); host or cells: chemical synthesis
Experimental: Aβ was stored in aliquots of 0.52 mg/ml in water at −20° C., then kept at 4° C. when thawed. Reagents were mixed without vortex mixing. The incubated Aβ was directly applied to a G50 SF (Pharmacia, Uppsala, Sweden) column (Bio-Rad Econo-Column, 30×0.7 cm) pre-equilibrated with metal salt solution or EDTA (50 μM) in TBS at 20° C. and eluted at 8 ml/h (Wiz peristaltic pump, Isco, Lincoln, Nebr.). Absorbance was measured at 254 and 214 nm (Type 6 optical unit, Isco). The amount of Aβ eluting at various peaks was estimated from the area under the curve. […] Because the sample eluted in a volume of approximately 15 ml, the average concentration of the peptide on the column was 0.8 μM.
To study the effects of protein blocking upon adsorption of Aβ to the chromatography column, a Sephadex G50 SF column which had been characterized previously for Aβ behavior was eluted with 3% bovine serum albumin (BSA) in TBS (50 ml) and equilibrated with non-BSA-containing buffer, subsequent to repeating the Aβ experiments.
The elution points of molecular mass standards and relative assignments of Aβ peak elutions are indicated. Mass standards were blue dextran (2×10^6 kDa, V0=void volume), BSA (66 kDa), carbonic anhydrase (29 kDa), cytochrome c (12.4 kDa), and aprotinin (6.5 kDa). The mass of Aβ is 4.3 kDa. […] Data for experiments performed in the presence of copper were taken from 214 nm readings and corrected for comparison.

trypsin = test: Trypsin activity, Z-Arg-amido-4-methylcoumarin cleavage; format: biochemical
Aβ [3] = biological target: T2, Aβ; test: SDS Tris/Tricine gel electrophoresis of Aβ incubated with Zn^2+; conditions: Zn^2+ 200 μM, 1-24 h, 20° C.
[4] = Aβ binding to kaolin (aluminum silicate); format: physicochemical; conditions: metal 25 μM
Experimental: Aβ Binding to Kaolin (Aluminum Silicate)—Kaolin suspension was prepared in high performance liquid chromatography water (Fisher), defined, and adjusted to 50% (v/v). Aβ (40 μg) was incubated in siliconized reaction vessels with either kaolin or Sephadex G50 SF (10 μl×50% (v/v)) in Cu^2+, Zn^2+, or EDTA (100 μl in TBS, 5 min, room temperature). The suspension was then pelleted (1500×g, 3 min) and the supernatant removed and diluted 20-fold with water to bring the UV absorbance readings into the linear range. Samples were assayed at 214 nm before and after incubation with kaolin or Sephadex.
(FIG. 3a) depicts concentration (by 214 nm absorbance) of Aβ remaining in supernatant after incubation with 10 mg of G50 Sephadex. (FIG. 3b) depicts concentration (by 214 nm absorbance) of Aβ remaining in supernatant after incubation with 10 mg of kaolin, expressed as percent of the starting absorbance.

[5] = human, in vivo
[6] = centrifugation studies; cited from earlier work
[7] = neutral pH; cited from earlier work
[8] = Size estimation of Aβ aggregates with filters of various pore sizes, ^65Zn tracer, EDTA wash; format: physicochemical
Experimental: FIGS. 7a, 7b, 7c and 7d. Size estimation of zinc-induced Aβ aggregates. […] By determining the amounts of Aβ1-40 and ^65Zn in the filtrate, the quantities retarded by the filters could be determined, and the stoichiometry of the zinc: Aβ assemblies estimated. (7d) Bar graph. […] The amounts of zinc-precipitated Aβ1-40 resolubilized in the filtrate fraction were determined by OD214, and expressed as a percentage of the amount originally retained by the respective filters. ^65Zn released into the filtrate was measured by γ-counting.
By determining the amounts of Aβ1-40 and ^65Zn in the filtrate, the quantities retarded by the filters could be determined, and the stoichiometry of the zinc: Aβ assemblies estimated. […] The amounts of zinc-precipitated Aβ1-40 resolubilized in the filtrate fraction were determined by OD214, and expressed as a percentage of the amount originally retained by the respective filters. ^65Zn released into the filtrate was measured by γ-counting.

[9] = Tinctorial amyloid formation (Congo Red, polarized light); format: physicochemical
Experimental: Zinc-induced tinctorial amyloid formation. […] Unbound dye was removed, the pellet washed with buffer 1 (100 mM NaCl, 20 mM Tris-HCl, pH 7.4) and mounted for microscopy.
Unbound dye was removed, the pellet washed with buffer 1 (100 mM NaCl, 20 mM Tris-HCl, pH 7.4) and mounted for microscopy.

T2 sequence (P05067 672-711 limits assumed): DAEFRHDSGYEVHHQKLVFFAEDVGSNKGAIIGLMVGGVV
T1 sequence (P05067 672-711 limits assumed): as above

zinc binding (in words) [1]: binds zinc
Compound: 6-40: 3.6 kDa tryptic digestion product of Aβ1-40

zinc binding (in words) [1]: does not bind zinc
Compound: 17-40: 2.1 kDa tryptic digestion product of Aβ1-40, post-secretase carboxyl-terminal product (LVFFAEDVGSNKGAIIGLMVGGVV; Amyloid-beta protein 40; UniProt P05067 688-711, looked up, fragment) [reference compound]
effect of zinc on the rate of tryptic digestion of the peptide (Aβ1-40; increasing zinc concentrations): not inhibited by increasing zinc concentrations

zinc binding (in words) [1]: unable to bind zinc
Compound: 25-35: Aβ fragment covering a region of the carboxyl terminus, residues 25-35 (GSNKGAIIGLM; Amyloid-beta protein 40; UniProt P05067 696-706, looked up, fragment)

Compound: [Ag+2] [Ag^2+]
less total peptide eluted compared with EDTA profile (Aβ [2]): 40%

Compound: [Al+3] [Al^3+]
effect on Aβ recoverable by chromatography (in words) (Aβ [2]): partial effects on Aβ solubility comparable with 3 μM total Zn^2+

Compound: [Ba+2] [Ba^2+]
less total peptide eluted compared with EDTA profile (Aβ [2]): 40%

Compound: [Ca+2] [Ca^2+]
less total peptide eluted compared with EDTA profile (Aβ [2]): 40%

Aβ dimerization (Aβ [2]; 25 μM total): dramatic increase in Aβ dimerization
Compound: [Cu+2] [Cu^2+]

Compound: [Mg+2] [Mg^2+]
less total peptide eluted compared with EDTA profile (Aβ [2]): 40%

Compound: [Pb+2] [Pb^2+]
effect on Aβ recoverable by chromatography (in words) (Aβ [2]): most strongly promotes the elution of the monomeric peptide, abolishing high order polymers

abolition of ^65Zn^2+ binding to Aβ ([1]; 150 mM Tris): ≈ 50% | abolition of ^65Zn^2+ binding to Aβ ([1]; 500 mM Tris): ≈ 95%
Compound: NC(CO)(CO)CO [Tris]

Compound: [Zn+2] [Zn^2+]
competition of unlabeled metal ions for ^65Zn^2+ label on Aβ ([1]; competing metal 50 μM total, ^65Zn^2+ 157 nM): the only unlabeled metal ion tested that is capable of competing off the label | inhibition of tryptic activity (trypsin; 200 μM): 12% | effect on the activity of trypsin (trypsin; up to 100 μM in TBS): negligible | covalent or SDS-resistant polymerization of Aβ (Aβ [3]): does not induce covalent or SDS-resistant polymerization of Aβ | induction of aggregation of human Aβ1-40 by metal ions (metal ions 3 μM, Aβ1-40 […]): the only one of several metal ions tested on an equimolar basis, including Al^3+, to induce significant aggregation of human Aβ1-40 | effect on kaolin-induced Aβ precipitation relative to EDTA [4]: nearly half of the amount recovered from the EDTA incubation supernatant | effect on cognition of age-matched control subjects [5]: remained unaffected by the dose | reversibility of changes [5]: rapidly reversible following cessation of the four day supplementation | time to acute decline in cognition [5]: forty-eight | drop in Mini-Mental State Examination scores ([5]; po): 31% | inhibition of tryptic Aβ hydrolysis (Aβ1-40; 200 μM Zn^2+): complete inhibition of Aβ hydrolysis | Aβ eluting from the column (Aβ [2]; 25 μM total Zn^2+): < 20% | lowest total concentration that decreases recoverable Aβ (Aβ [2]; compared with EDTA profile): 0.4 µM

^65Zn^2+ binding compared with Aβ1-40 ([1]; ^65Zn^2+ 74 nM, FIG. 1c): 30 % of Bmax
Compound: Aβ1-28: Aβ fragment, residues 1-28

Compound: ^125I-Aβ1-40: human Aβ1-40 tracer iodinated on the tyrosine residue at position 10
Zn^2+ concentration required to precipitate the peptide [6]: 1 mM

zinc binding (in words) [1]: does not interfere with ^65Zn^2+ binding
Compound: gln11: Aβ1-28 where residue 11 is glutamine (DAEFRHDSGYQVHHQKLVFFAEDVGSNK; Amyloid-beta protein 40; UniProt P05067 672-699, looked up, variant E11Q)

Compound: insulin: peptide whose zinc binding properties are well characterized
stoichiometric ratio Zn^2+:insulin at which the peptide precipitates [7]: > 0.33

Compound: rat Aβ1-40: rat/mouse species of Aβ1-40; Arg→Gly, Tyr→Phe and His→Arg at positions 5, 10 and 13 (DAEFGHDSGFEVRHQKLVFFAEDVGSNKGAIIGLMVGGVV; Amyloid-beta protein 40; UniProt P08592 672-711, looked up)
peptide aggregated into >0.2μ particles (EDTA, higher peptide concentrations): ≈ 15% | peptide aggregated into >0.2μ particles (EDTA, peptide 0.8 μM): no detectable aggregation | peptide aggregated into >0.2μ particles (Zn^2+ 25 μM, peptide 0.8 μM): no aggregation | peptide aggregated into >0.2μ particles (Zn^2+ 25 μM, peptide 4 μM): 25% | increase of >0.1μ particles following incubation with Zn^2+ ([8]; Zn^2+ 25 μM versus EDTA): 20% | increase of >0.22μ particles following incubation with Zn^2+ ([8]; Zn^2+ 25 μM versus EDTA): 30% | proportion as >0.65μ particles ([8]; Zn^2+ 25 μM, peptide […]): increased only slightly | Zn^2+ concentration that induces amyloid by tinctorial criteria [9]: ≥ 10 µM | Congo Red-stained material after incubation with EDTA ([9]; EDTA 50 μM instead of Zn^2+): In neither case was Congo Red-stained material detected | tinctorial amyloid formation (in words) ([9]; Zn^2+ 25 μM, 30 min, 37° C.): significantly fewer and smaller particles, with minimal birefringence
